# Results as given in patent US20220251081A1, “HETEROBICYCLIC INHIBITORS OF MAT2A AND METHODS OF USE FOR TREATING CANCER” (priority 2019, published 2022).
# What was measured:
# [1] = target: T1, MAT2A homodimer (Homo sapiens, UniProt P31153); experiment: Biochemical assay: inhibition of recombinant MAT2A homodimer (phosphate release, PiColorLock Gold); settings: MAT2A IC50 score; read-out: Enzyme Inhibition
# T1 construct: inferred from Ni sepharose purification and imidazole elution; made in house; host or cells: Sf9 insect cells, recombinant baculovirus (Bac to Bac, pFASTBAC1 vector)
# Summary of the method: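 Baculovirus/Sf9-expressed, Ni-purified MAT2A at 4 μg/mL in pH 8.0 Tris/KCl/MgCl2/EDTA/BSA buffer, preincubated with compound 60 min at 25 °C. Started with ATP and L-methionine substrate mix (500 μM and 40 μM, stock in mix), 60 min at 25 °C; released phosphate by PiColorLock Gold against a phosphate standard curve.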
# [2] = system: SAM in HCT116 human colon carcinoma cell line with deleted MTAP gene; experiment: Cellular assay of target engagement (SAM): SAM level by LC-MS/MS after 72 hrs; type: cell-based; settings: HCT-116, IC50 score, read-out: Cell 72 h SAM Inhibition (MTAP −/−)
# Summary of the method: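 MTAP-deleted HCT116 cells were seeded, then exposed 24 h later to a 10-point 3-fold compound dilution series for 72 h at 37 °C/5% CO2. They were lysed in cold 80% methanol/acetic acid containing d3-SAM internal standard. SAM was quantified by LC-MS/MS (MRM, m/z 399.2→250.1).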
# [3] = system: HCT116 MTAP-/-; experiment: Inhibition of cellular proliferation, 4 days, Cell Titer Glo, HCT116 MTAP-/-; type: cell-based; settings: Homo sapiens, HCT-116, 96 h, IC50 score, read-out: 4 Day Relative Growth Inhibition (MTAP −/−)
# Summary of the method: (§1)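 Isogenic human colon carcinoma lines differing only in MTAP status, plated 24 h before dosing, then exposed for 4 days at 37 °C/5% CO2 to a 10-point 3-fold dilution series (0.2% DMSO final). Read-out is Cell Titer Glo ATP luminescence, blank-subtracted and normalised to in-plate DMSO control, plotted as % proliferation change versus log molar concentration.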
# [4] = system: HCT116 MTAP +/+; experiment: Inhibition of cellular proliferation, 4 days, Cell Titer Glo, HCT116 MTAP+/+; type: cell-based; settings: Homo sapiens, HCT-116, 96 h, IC50 score, read-out: 4 Day Relative Growth Inhibition (MTAP +/+)
# Summary of the method: as §1
# T1 sequence (P31153 whole entry): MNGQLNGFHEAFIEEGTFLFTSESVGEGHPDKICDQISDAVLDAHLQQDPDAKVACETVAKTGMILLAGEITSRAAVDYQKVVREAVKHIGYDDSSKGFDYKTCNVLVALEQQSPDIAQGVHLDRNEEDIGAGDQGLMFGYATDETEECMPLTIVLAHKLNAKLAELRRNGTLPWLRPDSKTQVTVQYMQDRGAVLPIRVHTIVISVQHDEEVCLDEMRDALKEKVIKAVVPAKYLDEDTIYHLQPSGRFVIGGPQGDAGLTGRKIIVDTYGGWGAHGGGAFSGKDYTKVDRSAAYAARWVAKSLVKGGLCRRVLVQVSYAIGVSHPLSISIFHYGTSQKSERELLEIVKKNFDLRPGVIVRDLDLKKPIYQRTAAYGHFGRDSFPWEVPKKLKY
SMILES,IC50 [1] [nM],IC50 [2] [nM],IC50 [3] [nM],IC50 [4] [nM]
COc1ccc(-n2c(=O)c(-c3ccc(=O)n(C)c3)cc3cnc(NCC(F)(F)F)nc32)cc1 [Example 180],< 100,100 to 1000,100 to 1000,≥ 1000
[2H]C([2H])([2H])Oc1ccc(-n2c(=O)c(-c3ccc4nncn4c3)cc3ccc(OCC)nc32)cc1 [Example 221],< 100,< 100,< 100,≥ 1000
"CCOc1ccc2cc(-c3ccc4nn(C)cc4c3)c(=O)n(-c3ccc(C(F)(F)F)nc3)c2n1 [Example 151, 7-ethoxy-3-(2-methyl-2H-indazol-5-yl)-1-(6-(trifluoromethyl)pyridin-3-yl)-1,8-naphthyridin-2(1H)-one]",< 100,< 100,< 100,≥ 1000
COc1ccc(-n2c(=O)c(-c3ccc4ncsc4c3)cc3cnc(NCC(F)(F)F)nc32)cc1 [Example 188],< 100,< 100,100 to 1000,≥ 1000
[2H]C([2H])([2H])Oc1ccc(-n2c(=O)c(-c3ccc4nn(C)cc4c3)cc3ccc(OCC)nc32)cc1 [Example 148],< 100,< 100,< 100,100 to 1000
CCOc1ccc2cc(-c3ccc(=O)n(C)c3)c(=O)n(-c3ccc(Cl)cc3)c2n1 [Example 199],< 100,< 100,100 to 1000,≥ 1000
CCOc1ccc2cc(-c3ccc4nn(C)cc4c3)c(=O)n(-c3ccc(OC)cc3)c2n1 [Example 142],< 100,< 100,< 100,≥ 1000
CCNc1ccc2cc(-c3ccc4nn(C)cc4c3)c(=O)n(-c3ccc(OC(F)F)cc3)c2n1 [Example 309],< 100,< 100,< 100,< 100
CCOc1ccc2cc(-c3ccc4nn(C)cc4c3)c(=O)n(-c3ccc(NC)nc3)c2n1 [Example 144],< 100,< 100,< 100,100 to 1000
CCOc1ccc2cc(-c3ccc4nn(C)cc4c3)c(=O)n(-c3ccc(C4CC4)nc3)c2n1 [Example 161],< 100,< 100,< 100,100 to 1000
CCNc1ccc2cc(-c3ccc4nn(C)cc4c3)c(=O)n(-c3ccc(C4CC4)nc3)c2n1 [Example 308],< 100,< 100,< 100,≥ 1000
Cn1cc2cc(-c3nc4ccc(OCC(F)(F)F)nc4n(-c4ccc(C5CC5)cc4)c3=O)ccc2n1 [Example 329],< 100,< 100,< 100,≥ 1000
CCOc1ccc2cc(-c3ccc4nncn4c3)c(=O)n(-c3ccc(Cl)cc3)c2n1 [Example 205],< 100,< 100,< 100,≥ 1000
COc1ccc(-c2cc3cnc(NCC(F)(F)F)nc3n(-c3ccc(O)cc3)c2=O)cc1 [Example 106],100 to 1000,100 to 1000,100 to 1000,≥ 1000
COc1ccc(-n2c(=O)c(-c3ccc(OC)nc3)cc3cnc(NCC(F)(F)F)nc32)cc1 [Example 171],< 100,100 to 1000,≥ 1000,≥ 1000
CCOc1ccc2cc(-c3ccc4nn(C)nc4c3)c(=O)n(-c3ccc(Cl)cc3)c2n1 [Example 201],< 100,< 100,< 100,≥ 1000
CCOc1cnc2cc(-c3ccc(OC)cc3)c(=O)n(-c3ccc(OC(F)F)cc3)c2n1 [Example 230],< 100,< 100,100 to 1000,100 to 1000

SMILES,IC50 [1] [nM],IC50 [2] [nM],IC50 [3] [nM],IC50 [4] [nM]
CCOc1ccc2cc(-c3ccnc(OC)c3)c(=O)n(-c3ccc(Cl)cc3)c2n1 [Example 202],< 100,100 to 1000,100 to 1000,≥ 1000
CCOc1ccc2cc(-c3ccc4nnn(C)c4c3)c(=O)n(-c3ccc(Cl)cc3)c2n1 [Example 200],< 100,< 100,< 100,100 to 1000
CCOc1ccc2cc(-c3ccc(OC)cc3)c(=O)n(-c3ccc(OC(F)F)cc3)c2n1 [Example 139],< 100,< 100,100 to 1000,≥ 1000
CCOc1ccc2cc(-c3ccc4nn(C)cc4c3)c(=O)n(-c3ccc(OC(F)F)nc3)c2n1 [Example 155],< 100,< 100,< 100,≥ 1000
Cn1cc2cc(-c3cc4ccc(OCC(F)F)nc4n(-c4ccc(Cl)cc4)c3=O)ccc2n1 [Example 122],< 100,< 100,< 100,100 to 1000
"CCOc1cnc2cc(-c3ccc4nn(C)cc4c3)c(=O)n(-c3ccc(Cl)cc3)c2n1 [Example 229, 5-(4-chlorophenyl)-3-ethoxy-7-(2-methyl-2H-indazol-5-yl)pyrido[2,3-b]pyrazin-6(5H)-one]",< 100,< 100,< 100,≥ 1000
Cn1cc2cc(-c3cc4ccc(NCC(F)(F)F)nc4n(-c4ccc(OC(F)F)cc4)c3=O)ccc2n1 [Example 120],< 100,< 100,< 100,≥ 1000
Cn1cc2cc(-c3cc4ccc(OCC(F)F)nc4n(-c4ccc(OC(F)F)cc4)c3=O)ccc2n1 [Example 321],< 100,< 100,< 100,≥ 1000
"COc1ccc(-c2cc3cnc(NCC(F)(F)F)nc3n(-c3ccc(-c4nc[nH]n4)cc3)c2=O)cc1 [Example 101, 8-(4-(1H-1,2,4-triazol-3-yl)phenyl)-6-(4-methoxyphenyl)-2-(2,2,2-trifluoroethylamino)pyrido[2,3-d]pyrimidin-7(8H)-one]",< 100,< 100,100 to 1000,≥ 1000
"COc1ccc(-n2c(=O)c(-c3ccc4nc(N)n(C)c4c3)nc3ccc(OCC(F)(F)F)nc32)cc1 [Example 351, 2-(2-amino-1-methyl-1H-benzo[d]imidazol-6-yl)-4-(4-methoxyphenyl)-6-(2,2,2-trifluoroethoxy)pyrido[2,3-b]pyrazin-3(4H)-one]",< 100,< 100,< 100,≥ 1000
[2H]C([2H])([2H])Oc1ccc(-n2c(=O)c(-c3ccc4nn(C)cc4c3)cc3ccc(OC(C)C)nc32)cc1 [Example 322],< 100,< 100,< 100,≥ 1000
"COc1ccc(-n2c(=O)c(-c3ccc4nncn4c3)cc3ccc(OCC(F)F)nc32)cc1 [Example 194, 3-([1,2,4]triazolo[4,3-a]pyridin-6-yl)-7-(2,2-difluoroethoxy)-1-(4-methoxyphenyl)-1,8-naphthyridin-2(1H)-one]",< 100,< 100,< 100,100 to 1000
CCOc1ccc2cc(-c3ccc4nn(C)cc4c3)c(=O)n(-c3ccc(Cl)cc3)c2n1 [Example 138],< 100,< 100,< 100,100 to 1000
CCOc1ccc2cc(-c3ccc4nn(CC(C)(C)O)cc4c3)c(=O)n(-c3ccc(OC(F)F)nc3)c2n1 [Example 213],< 100,100 to 1000,100 to 1000,≥ 1000
Cc1ccc(-n2c(=O)c(-c3ccc4nn(C)cc4c3)nc3ccc(OCC(F)(F)F)nc32)cn1 [Example 333],< 100,< 100,100 to 1000,≥ 1000
CCOc1ccc2cc(-c3ccc4ncn(C)c4c3)c(=O)n(-c3ccc(Cl)cc3)c2n1 [Example 195],< 100,< 100,< 100,100 to 1000
